# Assay results reported in ChEMBL document CHEMBL1255537, “Design, synthesis and docking studies on phenoxy-3-piperazin-1-yl-propan-2-ol derivatives as protein tyrosine phosphatase 1B inhibitors” (2010).
# Experiments:
# [1] = tested on: Rattus norvegicus; assay: Antihyperglycemic activity in rat streptozotocin-induced diabetic model assessed as reduction of blood glucose level at 100 mg/kg, po after 24 hrs; format: functional
# [2] = tested on: Rattus norvegicus; assay: Antihyperglycemic activity in rat streptozotocin-induced diabetic model assessed as reduction of blood glucose level at 100 mg/kg, po after 5 hrs; format: functional
# [3] = tested on: Rattus norvegicus; assay: Antihyperglycemic activity in rat sucrose loaded model assessed as reduction of blood glucose level at 100 mg/kg, po; format: functional
# [4] = target: T1, Tyrosine-protein phosphatase non-receptor type 1 (Homo sapiens) (UniProt P18031); assay: Inhibition of PTP1B assessed as p-nitrophenolate ions release at 100 uM
# T1 sequence (whole entry): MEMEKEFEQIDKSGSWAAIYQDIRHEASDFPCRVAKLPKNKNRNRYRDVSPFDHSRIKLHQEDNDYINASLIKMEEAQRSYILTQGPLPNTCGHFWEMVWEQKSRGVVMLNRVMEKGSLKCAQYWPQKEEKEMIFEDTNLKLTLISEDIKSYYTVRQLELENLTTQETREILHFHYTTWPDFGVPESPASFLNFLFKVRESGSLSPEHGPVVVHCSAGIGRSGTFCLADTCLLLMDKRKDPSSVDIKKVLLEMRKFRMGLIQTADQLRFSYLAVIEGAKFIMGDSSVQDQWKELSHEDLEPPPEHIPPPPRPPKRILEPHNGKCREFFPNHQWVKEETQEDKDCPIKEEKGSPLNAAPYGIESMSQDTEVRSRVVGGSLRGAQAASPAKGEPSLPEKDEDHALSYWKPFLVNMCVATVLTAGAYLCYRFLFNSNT
inhibition [4],Compound,inhibition in vivo at 100 mg/kg [1],inhibition in vivo at 100 mg/kg [2],inhibition in vivo at 100 mg/kg [3]
5.1%,N#Cc1ccc(OCC(O)CN2CCN(Cc3ccccc3)CC2)cc1 (stereo unspecified),14.7%,25.3%,39.6%
1.8%,N#Cc1ccc(OCC(O)CN2CCN(c3ccccn3)CC2)cc1 (stereo unspecified),,,39.6%
31.6%,Cc1ccc(N2CCN(CC(O)COc3ccc(C#N)cc3)CC2C)cc1 (stereo unspecified),32%,26.8%,40.3%
1.5%,N#Cc1ccc(OCC(O)CN2CCN(c3cccc(Cl)c3)CC2)cc1 (stereo unspecified),,,16.5%
0.5%,N#Cc1ccc(OCC(O)CN2CCN(Cc3ccc4c(c3)OCO4)CC2)cc1 (stereo unspecified),,,14%
3.6%,N#Cc1ccc(OCC(O)CN2CCN(c3ccc(F)cc3)CC2)cc1 (stereo unspecified),,,38.6%
4.6%,N#Cc1ccc(OCC(O)CN2CCN(c3ccccc3)CC2)cc1 (stereo unspecified),,,56.7%
2.6%,COc1ccccc1N1CCN(CC(O)COc2ccc(C#N)cc2)CC1 (stereo unspecified),,,33.5%
18.8%,N#Cc1ccc(OCC(O)CN2CCN(c3cccc(C(F)(F)F)c3)CC2)cc1 (stereo unspecified),,,49.7%

# More lines, now with the values behind:
Compound,inhibition [4],inhibition in vivo at 100 mg/kg [1],inhibition in vivo at 100 mg/kg [2],inhibition in vivo at 100 mg/kg [3]
O=[N+]([O-])c1ccc(N2CCN(CC(O)COc3ccc(F)cc3)CC2)cc1 (stereo unspecified),24%,10.8%,14.4%,40.2%
OC(COc1ccc(Cl)cc1)CN1CCN(C/C=C/c2ccccc2)CC1 (stereo unspecified),7.63%,,,14.6%
CN1CCN(CC(O)COc2ccc(Cl)cc2)CC1 (stereo unspecified),2.4%,,,2.61%
O=[N+]([O-])c1ccc(N2CCN(CC(O)COc3ccc(Cl)cc3)CC2)cc1 (stereo unspecified),35.9%,13.6%,18.9%,24.8%
OC(COc1ccc(Cl)cc1)CN1CCN(c2ccc(Cl)c(Cl)c2)CC1 (stereo unspecified),24.6%,,,3.52%
COc1ccc(N2CCN(CC(O)COc3ccc(Cl)cc3)CC2)cc1 (stereo unspecified),9.21%,,,4.6%
CN(C)C(=N)NC(=N)N [METFORMIN],,29.8%,28%,42%
